{
  "source": "patent US20260294305A1",
  "about": "“METHOD FOR EX VIVO MEASURING GLOMERULAR FILTRATION RATE IN A SUBJECT” (Assistance Publique - Hôpitaux de Paris, priority 2023, published 2026)",
  "key": {"[1]": {"settings": "more specifically by glomerular filtration; cited from earlier work"}, "[2]": {"assay": "GFR measurement with iohexol clearance (mGFR), living kidney donor candidates", "format": "in vivo", "protocol": "(§1) All living kidney donor candidates investigated in Nephrology Department between July 2016 and October 2022, were eligible for inclusion. In accordance with the KDIGO guidelines (Lentine K L et al. ([11])), GFR was measured in all these individuals from iohexol clearance. […] The CT urography had to include 4 polychromatic acquisition phases (unenhanced, arterial, nephrographic, and excretory phases) with a monophasic injection of iomeprol at 350 or 400 mg of iodine per milliliter (Iomeron® 350 or 400, Bracco Imaging, Milano, Italy).\n(§2) After a 5 mL bolus injection of iohexol (300 mg/L Omnipaque®; GE Healthcare, France), and an equilibration period (time the tracer takes to distribute in the extracellular compartment), blood and urine samples were collected over four to six consecutive clearance periods. We performed six 30-min periods after a 90-min equilibration period until July 2019, then four 40-min periods after a 120-min equilibration. The concentrations of iohexol in serum and urine were determined by high-performance liquid chromatography (HPLC) as previously described (Cavalier E et al. ([12])). Measured GFR (mGFR) was the mean of the four to six clearance-period values calculated as follows: U×V/P, where U is the concentration of iohexol in the urine collected during the period, V is the urinary flow rate during the period, and P is the serum concentration of iohexol at mid period. Given the negative bias of this GFR measurement method (Seegmiller J C et al. ([13]), Stehlé T et al. ([14])), the following correction was used: mGFR=1.15×iohexol urinary clearance+1.3 (Stehlé T et al. ([14])). If voiding was irregular or incomplete or in case of urine loss, mGFR was calculated with iohexol plasma clearance determined from the plasma disappearance curve, with Bröchner-Mortensen correction model for the missing early compartment (Bröchner-Mortensen J. A ([15]))."}, "[3]": {"assay": "GFR measurement with iohexol clearance, chronic kidney disease patients", "format": "in vivo", "settings": "mean ± SD, 28 CKD patients", "protocol": "as §2, with “Given the negative bias of this GFR measurement method (Seegmiller J C et al. ([13]), Stehlé T et al. ([14])), the following correction was used: mGFR=1.15×iohexol urinary clearance+1.3 (Stehlé T et al. ([14])).” left out, “([15])). […]” for “([15])).”\nIohexol clearance was measured as previously described in the example 1."}, "[4]": {"assay": "GFR measurement with iomeprol clearance assessed by CT urography (CT-mGFR), living kidney donor candidates", "format": "in vivo", "protocol": "This is a cross-sectional study using data from kidney donor candidates who were screened in hospital between July 2016 and October 2022, with both GFR measurement by iohexol clearance, and kidney morphology assessment by CT urogaphy.\nas §1\nCT-mGFR was assessed by the same U×V/P calculation used to determine the urinary clearance of iohexol: the amount of iomeprol excreted through the urinary system during a given period of time was divided by the mean serum iomeprol concentration during the same period. The blood and urine concentration of iomeprol were assessed by attenuation measurement (Hounsfield Units, HU) in the different areas of interest. The time periods were derived from the acquisition time of the different phases. […] Manual segmentations of bladder, upper urinary tracts and kidneys were performed using the Advantage Windows software (Advantage Window v4.7; GE Healthcare, Buc, France), using different thresholds depending on the CT phase and then manually finalized. For non-contrast and portal venous phase: only a lower limit was set to 0 HU, in order to exclude fat pixels. For excretory phases: a specific threshold was adapted for each patient based on visual analysis in order to reduce extra-urinary pixels as much as possible. Also, the lower threshold used for upper excretory tract was used as the higher threshold for kidney segmentation to avoid overlap in segmentations. The urinary excretion rate of iomeprol between arterial and excretory phases (U×V, expressed as HU/min) was calculated from urinary excretion of iomeprol into the bladder (Uexcr-Bladder), urinary excretion of iomeprol into the upper excretory tract (calyces, pelvis, ureters) (Uexcr-tract), and urinary excretion of iomeprol into the kidney tubules (Uexcr-tubules): U×V=Uexcr-Bladder+Uexcr-tract+Uexcr-tubules. Uexcr-bladder was the volume of the bladder at the excretory phase (Bladder-Volume) multiplied by the mean CT-attenuation of the bladder at the excretory phase (HU-Bladder-excr) minus the CT-attenuation of the urine in bladder at the unenhanced phase (HU-Bladder-unenhanced), then divided by the time period between the excretory phase and the arterial phase (time period): Uexcr-Bladder=Bladder-volume×(HU-Bladder-excr−HU-Bladder-unenhanced)/time period. When the bladder was not included on the unenhanced phase, urine CT-attenuation could be measured on the nephrographic phase, the urine density at the nephrographic phase being slightly higher than at the unenhanced phase, but without clinical consequence on the CT-mGFR calculation. Uexcr-tract was determined in the same way by studying the upper excretory tract (calyces, pelvis, ureters) instead of the bladder. Uexcr-tubules was the volume of both kidneys (Kidney-volumes) multiplied by mean CT-attenuation of kidneys at the excretory phase (HU-Kidney-excr) minus mean CT-attenuation of kidneys at the unenhanced phase (HU-Kidney-unenhanced), then divided by time period: Uexcr-tubules=Kidney-volumes×(HU-Kidney-excr-HU-Kidney-unenhanced)/time period. The denominator of the U×V/P equation, was the calculated serum iomeprol concentration at the midpoint of the period between the arterial and excretory phases. At each phase, the difference between the CT attenuation of the aorta and the one at the unenhanced phase was the surrogate for the serum iomeprol concentration. […]"}, "[5]": {"settings": "after a bolus injection; cited from earlier work"}, "plasma proteins": {"test_system": "plasma proteins", "settings": "cited from earlier work"}, "[6]": {"settings": "cited from earlier work"}},
  "note": "“And” between values parts separate entries of the source, which are not always exact repeats. Equal values may be shown once.",
  "data": [
    {"smiles": "CN(CC(O)CO)C(=O)c1c(I)c(NC(=O)C(CO)CO)c(I)c(C(=O)N(C)CC(O)CO)c1I", "note": "(stereo not shown) [iobitridol]", "values": [
      {"measurement": "Route of elimination", "setting": "[1]", "result": "eliminated almost exclusively by the urinary excretion"}
    ]},
    {"smiles": "CC(=O)N(CC(O)CN(C(C)=O)c1c(I)c(C(=O)NCC(O)CO)c(I)c(C(=O)NCC(O)CO)c1I)c1c(I)c(C(=O)NCC(O)CO)c(I)c(C(=O)NCC(O)CO)c1I", "note": "(stereo not shown) [iodixanol]", "values": [
      {"measurement": "Route of elimination", "setting": "[1]", "result": "eliminated almost exclusively by the urinary excretion"}
    ]},
    {"smiles": "CC(=O)N(CC(O)CO)c1c(I)c(C(=O)NCC(O)CO)c(I)c(C(=O)NCC(O)CO)c1I", "note": "(stereo not shown) [iohexol]", "values": [
      {"measurement": "mGFR (iohexol clearance), maximum", "setting": "[2]; max", "result": 140.2, "unit": "ml/min/1.73 m^2"},
      {"measurement": "mGFR (iohexol clearance)", "setting": "[2]; mean ± SD, mGFR=1.15×iohexol urinary clearance+1.3", "result": "99.7±19.1", "unit": "ml/min/1.73 m^2"},
      {"measurement": "mGFR (iohexol clearance), minimum", "setting": "[2]; min", "result": 59.9, "unit": "ml/min/1.73 m^2"},
      {"measurement": "mGFR, ml/min, mean ± SD", "setting": "[2]; study population, Table 1", "result": "99.7 ± 19.1", "unit": "mL/min"},
      {"measurement": "Iohexol clearance-measured GFR", "setting": "[3]", "result": "46.0 mL/min/1.73 m2 and 46.0 ± 15.8 mL/min/1.73 m2"}
    ]},
    {"smiles": "CN(C(=O)CO)c1c(I)c(C(=O)NCC(O)CO)c(I)c(C(=O)NCC(O)CO)c1I", "note": "(stereo not shown) [iomeprol]", "values": [
      {"measurement": "Serum iomeprol concentrations assessed at the arterial phase", "setting": "[4]; example patient, 0 min, aorta attenuation minus unenhanced", "result": 210.2, "unit": "HU"},
      {"measurement": "Serum iomeprol concentrations assessed at the nephrographic phase", "setting": "[4]; example patient, 0.77 min, aorta attenuation minus unenhanced", "result": 88.3, "unit": "HU"},
      {"measurement": "Serum iomeprol concentrations assessed at the excretory phase", "setting": "[4]; example patient, 9.47 min, aorta attenuation minus unenhanced", "result": 46.8, "unit": "HU"},
      {"measurement": "Ln (iomeprol mid-period)", "setting": "[4]; example patient, mid-period between arterial and excretory phases", "result": 4.396},
      {"measurement": "CT-mGFR, maximum", "setting": "[4]; max", "result": 174.0, "unit": "ml/min/1.73 m^2"},
      {"measurement": "Mean CT-mGFR (iomeprol clearance assessed by CT urography)", "setting": "[4]; mean ± SD, n=75 living kidney donor candidates", "result": "100.9±19.5", "unit": "ml/min/1.73 m^2"},
      {"measurement": "CT-mGFR, minimum", "setting": "[4]; min", "result": 60.8, "unit": "ml/min/1.73 m^2"},
      {"measurement": "Correlation between its clearance and that of inulin", "setting": "[5]", "result": "very good correlation"},
      {"measurement": "Extra-renal clearance", "setting": "[5]", "result": "negligible"},
      {"measurement": "Plasma concentration decline", "setting": "[5]", "result": "declined biexponentially"},
      {"measurement": "Plasma protein binding", "setting": "plasma proteins", "result": "does not bind measurably to plasma proteins"},
      {"measurement": "Water solubility", "setting": "[6]", "result": "hydrosoluble"}
    ]}
  ]
}
